Reference: article PMC8079033, “Design, synthesis, anticancer evaluation, and molecular modelling studies of novel tolmetin derivatives as potential VEGFR-2 inhibitors and apoptosis inducers” (Journal of Enzyme Inhibition and Medicinal Chemistry, 2021)

Assays:
OVCAR-5 = test: NCI 60-cell line one-dose antiproliferative screen (SRB); assay type: cell-based; settings: Homo sapiens, read-out: growth inhibition % (GI%)
Procedure: (§1) Anticancer activity screening of the newly synthesised compounds was measured in vitro utilising 60 different human tumour cell lines provided by US National Cancer Institute according to previously reported standard procedure[41–43] as follows: Cells are inoculated into 96-well microtiter plates in 100 ml. After cell inoculation, the microtiter plates are incubated at 37 °C, 5% CO2, 95% air, and 100% relative humidity for 24 h prior to addition of experimental compounds. After 24 h, two plates of each cell line are fixed in situ with TCA, to represent a measurement of the cell population for each cell line at the time of compound addition (Tz). Experimental compounds are solubilised in dimethyl sulfoxide at 400-fold the desired final maximum test concentration and stored frozen prior to use. At the time of compound addition, an aliquot of frozen concentrate is thawed and diluted to twice the desired final maximum test concentration with a complete medium containing […] gentamicin. Aliquots of […] of the compounds dilutions are added to the appropriate microtiter wells already containing 100 ml of medium, resulting in the required final compound concentration. Following compound addition, the plates are incubated for an additional 48 h at 37 °C, 5% CO2, 95% air, and 100% relative humidity. For adherent cells, the assay is terminated by the addition of cold trichloroacetic acid (TCA). Cells are fixed in situ by the gentle addition of 50 ml of cold 50% (w/v) TCA (final concentration, 10% TCA) and incubated for […] at 4 °C. The supernatant is discarded, and the plates are washed five times with tap water and air-dried. Sulforhodamine B (SRB) solution (100 ml) at 0.4% (w/v) in 1% acetic acid is added to each well, and plates are incubated for 10 min at room temperature. After staining, the unbound dye is removed by washing five times with 1% acetic acid and the plates are air-dried. The bound stain is subsequently solubilised with a 10 mM trizma base, and the absorbance is read on an automated plate reader at a wavelength of 515 nm. For suspension cells, the methodology is the same except that the assay is terminated by fixing settled cells at the bottom of the wells by gently adding 50 ml of 80% TCA (final concentration, 16% TCA). Using the absorbance measurements [time zero, (Tz), control growth, (C), and test growth in the presence of compound (Ti)], the percentage growth is calculated for each compound. The One-dose data are reported as a mean graph of the percent growth of treated cells. The reported number is growth relative to the no-compound control, and relative to the time zero number of cells. This allows the detection of both growth inhibition and lethality.
(§2) Fifteen newly synthesised compounds were tested for their in vitro antiproliferative activity by the National Cancer Institute (NCI), Maryland, USA[50], under the Developmental Therapeutic Program (DTP)[41]^,[43]^,[51]^,[52]. The tested compounds were evaluated at a concentration of 10 µM on a panel of 60 tumour cell lines representing leukaemia and non-small cell lung, colon, CNS, melanoma, ovarian, renal, prostate, and breast cancers. The antiproliferative activity was presented by the NCI as percent growth of the treated cells and is presented in Table 1 as growth inhibition percentage (GI%) achieved by the tested compounds.

HOP-62 = test: as above; assay type: cell-based; settings: Homo sapiens, read-out: growth inhibition % (GI%)
Procedure: as §1, §2

SF-539 = test: as above; assay type: cell-based; settings: Homo sapiens, read-out: growth inhibition % (GI%)
Procedure: as §1, §2

EKVX = test: as above; assay type: cell-based; settings: Homo sapiens, read-out: growth inhibition % (GI%)
Procedure: as §1, §2

SN 12 C = test: as above; assay type: cell-based; settings: Homo sapiens, SN12C, read-out: growth inhibition % (GI%)
Procedure: as §1, §2

MOLT-4 = test: as above; assay type: cell-based; settings: Homo sapiens, read-out: growth inhibition % (GI%)
Procedure: as §1, §2

HS 578 T = test: as above; assay type: cell-based; settings: Homo sapiens, read-out: growth inhibition % (GI%)
Procedure: as §1, §2

OVCAR-4 = test: as above; assay type: cell-based; settings: Homo sapiens, read-out: growth inhibition % (GI%)
Procedure: as §1, §2

A549/ATCC = test: as above; assay type: cell-based; settings: Homo sapiens, read-out: growth inhibition % (GI%)
Procedure: as §1, §2

BT-5 = test: as above; assay type: cell-based; settings: Homo sapiens, read-out: growth inhibition % (GI%)
Procedure: as §1, §2

LOX IMVI = test: as above; assay type: cell-based; settings: Homo sapiens, read-out: growth inhibition % (GI%)
Procedure: as §1, §2

UO-31 = test: as above; assay type: cell-based; settings: Homo sapiens, read-out: growth inhibition % (GI%)
Procedure: as §1, §2

SK-MEL-5 = test: as above; assay type: cell-based; settings: Homo sapiens, read-out: growth inhibition % (GI%)
Procedure: as §1, §2

UACC-257 = test: as above; assay type: cell-based; settings: Homo sapiens, read-out: growth inhibition % (GI%)
Procedure: as §1, §2

HCT-15 = test: as above; assay type: cell-based; settings: Homo sapiens, read-out: growth inhibition % (GI%)
Procedure: as §1, §2

A498 = test: as above; assay type: cell-based; settings: Homo sapiens, read-out: growth inhibition % (GI%)
Procedure: as §1, §2

SNB-19 = test: as above; assay type: cell-based; settings: Homo sapiens, read-out: growth inhibition % (GI%)
Procedure: as §1, §2

UACC-62 = test: as above; assay type: cell-based; settings: Homo sapiens, read-out: growth inhibition % (GI%)
Procedure: as §1, §2

HCC-2998 = test: as above; assay type: cell-based; settings: Homo sapiens, read-out: growth inhibition % (GI%)
Procedure: as §1, §2

HOP-92 = test: as above; assay type: cell-based; settings: Homo sapiens, read-out: growth inhibition % (GI%)
Procedure: as §1, §2

U251 = test: as above; assay type: cell-based; settings: Homo sapiens, U-251, read-out: growth inhibition % (GI%)
Procedure: as §1, §2

MCF7 = test: as above; assay type: cell-based; settings: Homo sapiens, read-out: growth inhibition % (GI%)
Procedure: as §1, §2

T-47D = test: as above; assay type: cell-based; settings: Homo sapiens, T47D, read-out: growth inhibition % (GI%)
Procedure: as §1, §2

SNB-75 = test: as above; assay type: cell-based; settings: Homo sapiens, read-out: growth inhibition % (GI%)
Procedure: as §1, §2

NCI-H226 = test: as above; assay type: cell-based; settings: Homo sapiens, read-out: growth inhibition % (GI%)
Procedure: as §1, §2

SF-268 = test: as above; assay type: cell-based; settings: Homo sapiens, read-out: growth inhibition % (GI%)
Procedure: as §1, §2

MDA-MB-231/ATCC = test: as above; assay type: cell-based; settings: Homo sapiens, read-out: growth inhibition % (GI%)
Procedure: as §1, §2

IGROV1 = test: as above; assay type: cell-based; settings: Homo sapiens, IGROV-1, read-out: growth inhibition % (GI%)
Procedure: as §1, §2

NCI-H23 = test: as above; assay type: cell-based; settings: Homo sapiens, read-out: growth inhibition % (GI%)
Procedure: as §1, §2

HCT-116 = test: as above; assay type: cell-based; settings: Homo sapiens, read-out: growth inhibition % (GI%)
Procedure: as §1, §2

RPMI-8226 = test: as above; assay type: cell-based; settings: Homo sapiens, read-out: growth inhibition % (GI%)
Procedure: as §1, §2

NCI-H522 = test: as above; assay type: cell-based; settings: Homo sapiens, read-out: growth inhibition % (GI%)
Procedure: as §1, §2

K-562 = test: as above; assay type: cell-based; settings: Homo sapiens, K562, read-out: growth inhibition % (GI%)
Procedure: as §1, §2

ACHN = test: as above; assay type: cell-based; settings: Homo sapiens, read-out: growth inhibition % (GI%)
Procedure: as §1, §2

PC-3 = test: as above; assay type: cell-based; settings: Homo sapiens, read-out: growth inhibition % (GI%)
Procedure: as §1, §2

SW-620 = test: as above; assay type: cell-based; settings: Homo sapiens, read-out: growth inhibition % (GI%)
Procedure: as §1, §2

OVCAR-8 = test: as above; assay type: cell-based; settings: Homo sapiens, read-out: growth inhibition % (GI%)
Procedure: as §1, §2

CAKI-1 = test: as above; assay type: cell-based; settings: Homo sapiens, read-out: growth inhibition % (GI%)
Procedure: as §1, §2

CCRF-CEM = test: as above; assay type: cell-based; settings: Homo sapiens, read-out: growth inhibition % (GI%)
Procedure: as §1, §2

MDA-MB-435 = test: as above; assay type: cell-based; settings: Homo sapiens, read-out: growth inhibition % (GI%)
Procedure: as §1, §2

SK-OV-3 = test: as above; assay type: cell-based; settings: Homo sapiens, read-out: growth inhibition % (GI%)
Procedure: as §1, §2

SK-MEL-2 = test: as above; assay type: cell-based; settings: Homo sapiens, read-out: growth inhibition % (GI%)
Procedure: as §1, §2

KM12 = test: as above; assay type: cell-based; settings: Homo sapiens, read-out: growth inhibition % (GI%)
Procedure: as §1, §2

NCI/ADR-RES = test: as above; assay type: cell-based; settings: Homo sapiens, read-out: growth inhibition % (GI%)
Procedure: as §1, §2

M14 = test: as above; assay type: cell-based; settings: Homo sapiens, read-out: growth inhibition % (GI%)
Procedure: as §1, §2

SK-MEL-28 = test: as above; assay type: cell-based; settings: Homo sapiens, read-out: growth inhibition % (GI%)
Procedure: as §1, §2

NCI-H322M = test: as above; assay type: cell-based; settings: Homo sapiens, read-out: growth inhibition % (GI%)
Procedure: as §1, §2

HL-60 (TB) = test: as above; assay type: cell-based; settings: Homo sapiens, read-out: growth inhibition % (GI%)
Procedure: as §1, §2

Cc1ccc(C(=O)c2ccc(CC(=O)NNC(=O)Nc3c(Cl)cccc3Cl)n2C)cc1 [Compound 8a, N-(2,6-Dichlorophenyl)-2–(2-(1-methyl-5–(4-methylbenzoyl)-1H-pyrrol-2-yl)acetyl) hydrazinecarboxamide]
melting point: 245 to 247 °C
inhibition at 10 µM (OVCAR-5): < 10%
inhibition at 10 µM (HOP-62): 11.4%
inhibition at 10 µM (SF-539): < 10%
inhibition at 10 µM (EKVX): < 10%
inhibition at 10 µM (SN 12 C): < 10%
inhibition at 10 µM (MOLT-4): < 10%
inhibition at 10 µM (HS 578 T): < 10%
inhibition at 10 µM (OVCAR-4): 16%
inhibition at 10 µM (A549/ATCC): < 10%
inhibition at 10 µM (BT-5): < 10%
inhibition at 10 µM (LOX IMVI): < 10%
inhibition at 10 µM (UO-31): 31.1%
inhibition at 10 µM (SK-MEL-5): < 10%
inhibition at 10 µM (UACC-257): < 10%
inhibition at 10 µM (HCT-15): < 10%
inhibition at 10 µM (A498): < 10%
inhibition at 10 µM (SNB-19): 17.7%
inhibition at 10 µM (UACC-62): 11.1%
inhibition at 10 µM (HCC-2998): < 10%
inhibition at 10 µM (HOP-92): < 10%
inhibition at 10 µM (U251): 11.7%
inhibition at 10 µM (MCF7): 10%
inhibition at 10 µM (T-47D): 18%
inhibition at 10 µM (SNB-75): 28.1%
inhibition at 10 µM (NCI-H226): < 10%
inhibition at 10 µM (SF-268): < 10%
inhibition at 10 µM (MDA-MB-231/ATCC): < 10%
inhibition at 10 µM (IGROV1): 14%
inhibition at 10 µM (NCI-H23): < 10%
inhibition at 10 µM (HCT-116): < 10%
inhibition at 10 µM (RPMI-8226): < 10%
inhibition at 10 µM (NCI-H522): 15.9%
inhibition at 10 µM (K-562): < 10%
inhibition at 10 µM (ACHN): < 10%
inhibition at 10 µM (PC-3): 10.5%
inhibition at 10 µM (SW-620): < 10%
inhibition at 10 µM (OVCAR-8): < 10%
inhibition at 10 µM (CAKI-1): 14.9%

Cc1ccc(C(=O)c2ccc(CC(=O)NN3C(=O)c4ccccc4C3=O)n2C)cc1 [Compound 7c, N-(1,3-Dioxoisoindolin-2-yl)-2–(1-methyl-5–(4-methylbenzoyl)-1H-pyrrol-2-yl) acetamide]
melting point: > 300 °C
inhibition at 10 µM (HOP-62): < 10%
inhibition at 10 µM (EKVX): 24.5%
inhibition at 10 µM (SN 12 C): < 10%
inhibition at 10 µM (MOLT-4): 10.6%
inhibition at 10 µM (HS 578 T): < 10%
inhibition at 10 µM (CCRF-CEM): < 10%
inhibition at 10 µM (A549/ATCC): 14%
inhibition at 10 µM (BT-5): < 10%
inhibition at 10 µM (LOX IMVI): 10.2%
inhibition at 10 µM (UO-31): 27.3%
inhibition at 10 µM (SK-MEL-5): < 10%
inhibition at 10 µM (MDA-MB-435): < 10%
inhibition at 10 µM (HCT-15): < 10%
inhibition at 10 µM (SK-OV-3): < 10%
inhibition at 10 µM (A498): 13.3%
inhibition at 10 µM (SK-MEL-2): < 10%
inhibition at 10 µM (SNB-19): < 10%
inhibition at 10 µM (U251): < 10%
inhibition at 10 µM (MCF7): < 10%
inhibition at 10 µM (KM12): < 10%
inhibition at 10 µM (T-47D): 25.5%
inhibition at 10 µM (SNB-75): 17.9%
inhibition at 10 µM (NCI/ADR-RES): < 10%
inhibition at 10 µM (NCI-H226): < 10%
inhibition at 10 µM (SF-268): < 10%
inhibition at 10 µM (M14): < 10%
inhibition at 10 µM (MDA-MB-231/ATCC): < 10%
inhibition at 10 µM (IGROV1): 14.8%
inhibition at 10 µM (SK-MEL-28): < 10%
inhibition at 10 µM (NCI-H23): < 10%
inhibition at 10 µM (NCI-H322M): < 10%
inhibition at 10 µM (HCT-116): < 10%
inhibition at 10 µM (NCI-H522): 14.4%
inhibition at 10 µM (K-562): < 10%
inhibition at 10 µM (ACHN): < 10%
inhibition at 10 µM (PC-3): < 10%
inhibition at 10 µM (SW-620): < 10%
inhibition at 10 µM (OVCAR-8): < 10%
inhibition at 10 µM (HL-60 (TB)): < 10%
inhibition at 10 µM (CAKI-1): < 10%
